Active and inactive are the calls of the source. No cut-off for these calls is given here.
How the values were obtained:
Ryanodine receptor = Ryanodine receptor (Hemicentrotus pulcherrimus, UniProt Q8TA74); assay: (§1) Agonist activity at ryanodine receptor in Hemicentrotus pulcherrimus egg homogenate assessed as increase in intracellular calcium mobilization by Fluo-3 dye based fluorimetric assay; assay type: cell-based
[1] = biological target: Ryanodine receptor (Hemicentrotus pulcherrimus) (UniProt Q8TA74); assay: as §1; assay type: cell-based
Homo sapiens [2] = species on record: Homo sapiens; assay: Agonist activity at ryanodine receptor (unknown origin) in neuronal cells assessed as increase in intracellular calcium mobilization by Fluo-3 dye based fluorimetric assay; assay type: cell-based
[3] = Dissociation constant, pKa of the compound; assay type: physicochemical
Homo sapiens [4] = species on record: Homo sapiens; assay: Agonist activity at ryanodine receptor (unknown origin) in T cells assessed as increase in intracellular calcium mobilization by Fluo-3 dye based fluorimetric assay; assay type: cell-based
[5] = biological target: Ryanodine receptor (Hemicentrotus pulcherrimus) (UniProt Q8TA74); assay: Antagonist activity at ryanodine receptor in Hemicentrotus pulcherrimus egg homogenate assessed as decrease in intracellular calcium mobilization by Fluo-3 dye based fluorimetric assay; assay type: cell-based

Compound | EC50 (Ryanodine receptor) [nM] | Activity [1] | Activity (Homo sapiens [2]) | pKa [3] | Activity (Homo sapiens [4]) | inhibition [5]
[N-]=[N+]=Nc1nc2c(N)[n+]3cnc2n1[C@@H]1O[C@H](COP(=O)(O)OP(=O)([O-])OC[C@H]2S[C@@H]3[C@H](O)[C@@H]2O)[C@@H](O)[C@H]1O | 37000 | – | – | – | – | –
[N-]=[N+]=Nc1nc2c(N)[n+]3cnc2n1[C@@H]1O[C@H](COP(=O)(O)OP(=O)([O-])OC[C@H]2C[C@@H]3[C@H](O)[C@@H]2O)[C@@H](O)[C@H]1O | – | Active | – | – | – | –
Nc1c2nc(Cl)n3c2nc[n+]1[C@@H]1C[C@H](COP(=O)(O)OP(=O)([O-])OC[C@H]2O[C@@H]3[C@H](O)[C@@H]2O)[C@@H](O)[C@H]1O | – | Active | – | – | – | –
Nc1c2ncn3c2nc[n+]1[C@@H]1C[C@H](COP(=O)([O-])OP(=O)(O)OC[C@H]2O[C@@H]3[C@H](O)[C@@H]2O)[C@@H](O)[C@H]1O | – | – | Active | 9 | inactive | –
Nc1nc2c(N)[n+]3cnc2n1[C@@H]1O[C@H](COP(=O)([O-])OP(=O)(O)OC[C@H]2C[C@@H]3[C@H](O)[C@@H]2O)[C@@H](O)[C@H]1O | – | Active | – | – | – | –
Nc1c2ncn3c2nc[n+]1[C@@H]1O[C@H](COP(=O)([O-])OP(=O)(O)OC[C@H]2O[C@@H]3[C@H](O)[C@@H]2O)[C@@H](O)[C@H]1O | 210 | Dose-dependent effect | – | 8.3 | Active | –
Nc1c2ncn3c2nc[n+]1[C@@H]1S[C@H](COP(=O)([O-])OP(=O)(O)OC[C@H]2O[C@@H]3[C@H](O)[C@@H]2O)[C@@H](O)[C@H]1O | 39 | – | Active | 8 | Active | –
Nc1c2nc(Cl)n3c2nc[n+]1[C@@H]1S[C@H](COP(=O)([O-])OP(=O)(O)OC[C@H]2O[C@@H]3[C@H](O)[C@@H]2O)[C@@H](O)[C@H]1O | 12000 | – | – | – | – | inactive
Nc1nc2c(N)[n+]3cnc2n1[C@@H]1O[C@H](COP(=O)(O)OP(=O)([O-])OC[C@H]2S[C@@H]3[C@H](O)[C@@H]2O)[C@@H](O)[C@H]1O | 870 | – | – | – | – | inactive

Source: ChEMBL document CHEMBL4011637, “Synthesis of 8-Substituted Analogues of Cyclic ADP-4-Thioribose and Their Unexpected Identification as Ca2+-Mobilizing Full Agonists” (J Med Chem, 2017)
